In BindingDB's records for PubMed 7562491 (Zeneca Pharmaceuticals, 1995):
Several values for one entry are separate records, joined by “and”; a condition that tells them apart may be missing. Identical values can stand only once.

Assays:
Substance-K receptor [1] = molecular target: T1, Substance-K receptor (Homo sapiens, UniProt P21452)
T1 sequence (P21452 whole entry): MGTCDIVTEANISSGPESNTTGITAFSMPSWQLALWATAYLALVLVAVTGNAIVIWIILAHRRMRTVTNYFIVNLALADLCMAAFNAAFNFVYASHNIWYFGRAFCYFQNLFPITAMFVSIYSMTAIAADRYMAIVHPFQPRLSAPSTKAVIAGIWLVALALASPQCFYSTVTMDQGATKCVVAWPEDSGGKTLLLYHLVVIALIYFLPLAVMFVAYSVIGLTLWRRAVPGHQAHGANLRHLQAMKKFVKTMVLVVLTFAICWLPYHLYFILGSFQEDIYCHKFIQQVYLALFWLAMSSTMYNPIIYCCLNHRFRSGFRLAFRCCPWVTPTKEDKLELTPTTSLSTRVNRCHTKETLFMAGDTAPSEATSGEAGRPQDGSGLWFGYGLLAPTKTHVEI

Substance-K receptor [2] = molecular target: T2, Substance-K receptor (Mesocricetus auratus, UniProt P51144)
T2 sequence (P51144 whole entry): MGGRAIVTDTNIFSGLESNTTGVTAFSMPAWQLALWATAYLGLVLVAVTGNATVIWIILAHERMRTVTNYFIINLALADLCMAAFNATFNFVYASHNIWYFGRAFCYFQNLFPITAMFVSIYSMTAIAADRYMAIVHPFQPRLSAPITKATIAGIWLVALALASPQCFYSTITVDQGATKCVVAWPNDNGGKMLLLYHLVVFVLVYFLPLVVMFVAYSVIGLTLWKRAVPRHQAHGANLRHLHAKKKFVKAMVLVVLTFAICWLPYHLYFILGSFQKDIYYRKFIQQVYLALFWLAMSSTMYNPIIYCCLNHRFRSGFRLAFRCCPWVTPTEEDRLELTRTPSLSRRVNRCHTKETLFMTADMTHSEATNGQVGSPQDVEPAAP

Substance-P receptor = Substance-P receptor (Cavia porcellus, UniProt P30547)
Substance-P receptor, sequence (P30547 whole entry): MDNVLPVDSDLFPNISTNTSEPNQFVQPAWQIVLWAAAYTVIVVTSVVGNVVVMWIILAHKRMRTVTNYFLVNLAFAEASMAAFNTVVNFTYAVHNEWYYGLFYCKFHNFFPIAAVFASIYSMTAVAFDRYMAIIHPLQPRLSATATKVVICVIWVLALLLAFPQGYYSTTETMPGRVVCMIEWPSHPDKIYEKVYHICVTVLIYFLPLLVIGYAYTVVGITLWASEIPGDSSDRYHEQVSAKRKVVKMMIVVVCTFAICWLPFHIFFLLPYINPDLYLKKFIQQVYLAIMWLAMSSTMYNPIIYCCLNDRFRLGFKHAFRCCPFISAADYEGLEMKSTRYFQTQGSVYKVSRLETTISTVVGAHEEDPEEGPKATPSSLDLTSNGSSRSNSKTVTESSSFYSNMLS

SMILES	Ki (Substance-K receptor [1]) [nM]	Ki (Substance-K receptor [2])	Ki (Substance-P receptor) [nM]
O=C1c2nc(N3CCOCC3)nc(Nc3ccc(Cl)cc3)c2CN1CCN1CCOCC1 [COMPOUND II]	187	41 nM and 39 nM	–
CC(C)N1Cc2c(Nc3ccc(Cl)cc3)nc(N3CCN(C(=O)Cc4[nH]c(=O)[nH]c4O)CC3)nc2C1=O [COMPOUND I]	188	18 nM and 17 nM	–
CC(N=O)C(=O)N1CCN(c2nc(Nc3ccc(Cl)cc3)c3c(n2)C(=O)N(C(C)C)C3)CC1 (configuration not stated) [ZM253,270]	105	2.2 nM and 2 nM	9770
